Experiments:
Assay in all cases: General post-emergent herbicidal activity, foliar application
Assay type in all cases: in vivo
[1] = tested on: Amaranthus retroflexus L. (pigweed, redroot); conditions: for pest or weed control at 70 g/ha: 70 g ai/ha; for pest or weed control at 140 g/ha: 140 g ai/ha; for pest or weed control at 280 g/ha: 280 g ai/ha; for GR80 Value AMARE: calculated by probit analysis, dose for 80% visual injury, may be extrapolated
Procedure, shortened: (§1)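 Compounds in acetone/DMSO 97:3 were diluted into aqueous spray mix with isopropanol, crop oil concentrate and Triton X-155, then serially diluted to 1/2×–1/16× of the top rate and sprayed on foliage. Plants were kept in greenhouse with sub-irrigation. Injury was scored visually (0–100%) at 14 days; GR20/GR50/GR80 came from probit analysis.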

[2] = tested on: Chenopodium album L. (lambsquarters, common); conditions: for pest or weed control at 70 g/ha: 70 g ai/ha; for pest or weed control at 140 g/ha: 140 g ai/ha; for pest or weed control at 280 g/ha: 280 g ai/ha; for GR80 Value CHEAL: calculated by probit analysis, dose for 80% visual injury, may be extrapolated
Procedure, shortened: as §1

[3] = tested on: Echinochloa crus-galli (L.) Beauv. (barnyardgrass); conditions: for pest or weed control at 70 g/ha: 70 g ai/ha; for pest or weed control at 140 g/ha: 140 g ai/ha; for pest or weed control at 280 g/ha: 280 g ai/ha; for GR80 Value ECHCG: calculated by probit analysis, dose for 80% visual injury, may be extrapolated
Procedure, shortened: as §1

[4] = tested on: Euphorbia heterophylla L. (poinsettia, wild); conditions: for pest or weed control at 70 g/ha: 70 g ai/ha; for pest or weed control at 140 g/ha: 140 g ai/ha; for pest or weed control at 280 g/ha: 280 g ai/ha; for GR80 Value EPHHL: calculated by probit analysis, dose for 80% visual injury, may be extrapolated
Procedure, shortened: as §1

[5] = tested on: Helianthus annuus L. (sunflower, common); conditions: for pest or weed control at 70 g/ha: 70 g ai/ha; for pest or weed control at 140 g/ha: 140 g ai/ha; for pest or weed control at 280 g/ha: 280 g ai/ha; for GR80 Value HELAN: calculated by probit analysis, dose for 80% visual injury, may be extrapolated
Procedure, shortened: as §1

[6] = tested on: Viola tricolor L. (pansy); conditions: for pest or weed control at 70 g/ha: 70 g ai/ha; for pest or weed control at 140 g/ha: 140 g ai/ha; for pest or weed control at 280 g/ha: 280 g ai/ha; for GR80 Value VIOTR: calculated by probit analysis, dose for 80% visual injury, may be extrapolated
Procedure, shortened: as §1

Oryza sativa L. (rice) = conditions: Oryza sativa, 336 h, scored after 14 days, read-out: % Visual Growth Reduction ORYSA; for plant injury at 70 g/ha: 70 g ai/ha; for plant injury at 140 g/ha: 140 g ai/ha; for plant injury at 280 g/ha: 280 g ai/ha
Procedure, shortened: (§2)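 Injury rated visually 14 days after treatment on a 0 (none) to 100% (complete kill) scale against untreated plants; greenhouse-grown, sub-irrigated to avoid wash-off. Foliar spray in aqueous acetone/DMSO with isopropanol, crop oil concentrate and Triton X-155, at a highest rate and 2-fold serial dilutions down to 1/16×.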

Zea mays L. (corn) = conditions: 336 h, scored after 14 days, read-out: % Visual Growth Reduction ZEAMX; for plant injury at 70 g/ha: 70 g ai/ha; for plant injury at 140 g/ha: 140 g ai/ha; for plant injury at 280 g/ha: 280 g ai/ha
Procedure, shortened: as §2

[7] = Amaranthus retroflexus, 336 h, foliar post-emergent, scored after 14 days, read-out: % Visual Growth Reduction AMARE
[8] = Chenopodium album, 336 h, foliar post-emergent, scored after 14 days, read-out: % Visual Growth Reduction CHEAL
[9] = Echinochloa crus-galli, 336 h, foliar post-emergent, scored after 14 days, read-out: % Visual Growth Reduction ECHCG
[10] = Euphorbia heterophylla, 336 h, foliar post-emergent, scored after 14 days, read-out: % Visual Growth Reduction EPHHL
[11] = Helianthus annuus, 336 h, foliar post-emergent, scored after 14 days, read-out: % Visual Growth Reduction HELAN
[12] = Viola tricolor, 336 h, foliar post-emergent, scored after 14 days, read-out: % Visual Growth Reduction VIOTR

With `CC(F)c1nc(C(=O)O)c(Cl)c(N)c1Cl` (stereo not drawn) [Compound F16, 4-Amino-3,5-dichloro-6-(1-fluoroethyl)picolinic acid] the pest or weed control at 70 g/ha [1, 7] was 90%, the pest or weed control at 140 g/ha [1, 7] was 90% and the pest or weed control at 280 g/ha [1, 7] was 100%. The “GR80 Value AMARE” value [1] was 51.4 g ai/ha, the pest or weed control at 70 g/ha [2, 8] was 100% and the pest or weed control at 140 g/ha [2, 8] was 100%. For the same compound, the pest or weed control at 280 g/ha [2, 8] was 100%, the “GR80 Value CHEAL” value [2] was <17.5 g ai/ha and the pest or weed control at 70 g/ha [3, 9] was 0%. For the same compound, the pest or weed control at 140 g/ha [3, 9] was 0%, the pest or weed control at 280 g/ha [3, 9] was 0% and the “GR80 Value ECHCG” value [3] was >280 g ai/ha. It also gave a pest or weed control at 70 g/ha [4, 10] of 0%, a pest or weed control at 140 g/ha [4, 10] of 0% and a pest or weed control at 280 g/ha [4, 10] of 50%. For the same compound, the “GR80 Value EPHHL” value [4] was 373 g ai/ha, the pest or weed control at 70 g/ha [5, 11] was 80% and the pest or weed control at 140 g/ha [5, 11] was 90%. For the same compound, the pest or weed control at 280 g/ha [5, 11] was 100%, the “GR80 Value HELAN” value [5] was 31.4 g ai/ha and the pest or weed control at 70 g/ha [6, 12] was 0%. The pest or weed control at 140 g/ha [6, 12] was 0%, the pest or weed control at 280 g/ha [6, 12] was 0% and the “GR80 Value VIOTR” value [6] was >280 g ai/ha. The plant injury at 70 g/ha (Oryza sativa L. (rice)) was 0%, the plant injury at 140 g/ha (Oryza sativa L. (rice)) was 0% and the plant injury at 280 g/ha (Oryza sativa L. (rice)) was 0%. It also gave a plant injury at 70 g/ha (Zea mays L. (corn)) of 0%, a plant injury at 140 g/ha (Zea mays L. (corn)) of 0% and a plant injury at 280 g/ha (Zea mays L. (corn)) of 0%.

For `COC(=O)c1nc(C(C)(C)F)c(F)c(N)c1Cl` [Compound F8, Methyl 4-amino-3-chloro-5-fluoro-6-(2-fluoropropan-2-yl)picolinate], the pest or weed control at 40 g/ha ([1]; Amaranthus retroflexus, 336 h, 40 g ai/ha, foliar post-emergent, scored after 14 days, read-out: % Visual Growth Reduction AMARE) was 90%, the pest or weed control at 80 g/ha ([1]; Amaranthus retroflexus, 336 h, 80 g ai/ha, foliar post-emergent, scored after 14 days, read-out: % Visual Growth Reduction AMARE) was 100% and the pest or weed control at 160 g/ha ([1]; Amaranthus retroflexus, 336 h, 160 g ai/ha, foliar post-emergent, scored after 14 days, read-out: % Visual Growth Reduction AMARE) was 100%. The “GR80 Value AMARE” value [1] was 25.1 g ai/ha, the pest or weed control at 40 g/ha ([2]; Chenopodium album, 336 h, 40 g ai/ha, foliar post-emergent, scored after 14 days, read-out: % Visual Growth Reduction CHEAL) was 90% and the pest or weed control at 80 g/ha ([2]; Chenopodium album, 336 h, 80 g ai/ha, foliar post-emergent, scored after 14 days, read-out: % Visual Growth Reduction CHEAL) was 90%. The pest or weed control at 160 g/ha ([2]; Chenopodium album, 336 h, 160 g ai/ha, foliar post-emergent, scored after 14 days, read-out: % Visual Growth Reduction CHEAL) was 90%, the “GR80 Value CHEAL” value [2] was 36.9 g ai/ha and the pest or weed control at 40 g/ha ([3]; Echinochloa crus-galli, 336 h, 40 g ai/ha, foliar post-emergent, scored after 14 days, read-out: % Visual Growth Reduction ECHCG) was 0%. The pest or weed control at 80 g/ha ([3]; Echinochloa crus-galli, 336 h, 80 g ai/ha, foliar post-emergent, scored after 14 days, read-out: % Visual Growth Reduction ECHCG) was 0%, the pest or weed control at 160 g/ha ([3]; Echinochloa crus-galli, 336 h, 160 g ai/ha, foliar post-emergent, scored after 14 days, read-out: % Visual Growth Reduction ECHCG) was 50% and the “GR80 Value ECHCG” value [3] was 213 g ai/ha. The pest or weed control at 40 g/ha ([4]; Euphorbia heterophylla, 336 h, 40 g ai/ha, foliar post-emergent, scored after 14 days, read-out: % Visual Growth Reduction EPHHL) was 90%, the pest or weed control at 80 g/ha ([4]; Euphorbia heterophylla, 336 h, 80 g ai/ha, foliar post-emergent, scored after 14 days, read-out: % Visual Growth Reduction EPHHL) was 100% and the pest or weed control at 160 g/ha ([4]; Euphorbia heterophylla, 336 h, 160 g ai/ha, foliar post-emergent, scored after 14 days, read-out: % Visual Growth Reduction EPHHL) was 100%. The “GR80 Value EPHHL” value [4] was 17.9 g ai/ha, the pest or weed control at 40 g/ha ([5]; Helianthus annuus, 336 h, 40 g ai/ha, foliar post-emergent, scored after 14 days, read-out: % Visual Growth Reduction HELAN) was 90% and the pest or weed control at 80 g/ha ([5]; Helianthus annuus, 336 h, 80 g ai/ha, foliar post-emergent, scored after 14 days, read-out: % Visual Growth Reduction HELAN) was 90%. For the same compound, the pest or weed control at 160 g/ha ([5]; Helianthus annuus, 336 h, 160 g ai/ha, foliar post-emergent, scored after 14 days, read-out: % Visual Growth Reduction HELAN) was 90%, the “GR80 Value HELAN” value [5] was 18.6 g ai/ha and the pest or weed control at 40 g/ha ([6]; Viola tricolor, 336 h, 40 g ai/ha, foliar post-emergent, scored after 14 days, read-out: % Visual Growth Reduction VIOTR) was 10%. For the same compound, the pest or weed control at 80 g/ha ([6]; Viola tricolor, 336 h, 80 g ai/ha, foliar post-emergent, scored after 14 days, read-out: % Visual Growth Reduction VIOTR) was 50%, the pest or weed control at 160 g/ha ([6]; Viola tricolor, 336 h, 160 g ai/ha, foliar post-emergent, scored after 14 days, read-out: % Visual Growth Reduction VIOTR) was 70% and the “GR80 Value VIOTR” value [6] was 185 g ai/ha. The plant injury at 40 g/ha (Oryza sativa L. (rice); 40 g ai/ha) was 0%, the plant injury at 80 g/ha (Oryza sativa L. (rice); 80 g ai/ha) was 0% and the plant injury at 160 g/ha (Oryza sativa L. (rice); 160 g ai/ha) was 8%. It also gave a plant injury at 40 g/ha (Zea mays L. (corn); 40 g ai/ha) of 0%, a plant injury at 80 g/ha (Zea mays L. (corn); 80 g ai/ha) of 0% and a plant injury at 160 g/ha (Zea mays L. (corn); 160 g ai/ha) of 0%.

`COC(=O)c1nc(CCF)c(F)c(N)c1Cl` [Compound F29, Methyl 4-amino-3-chloro-5-fluoro-6-(2-fluoroethyl)picolinate] was tested, and the pest or weed control at 70 g/ha [1, 7] was 90%, the pest or weed control at 140 g/ha [1, 7] was 100% and the pest or weed control at 280 g/ha [1, 7] was 100%. For the same compound, the “GR80 Value AMARE” value [1] was 55.1 g ai/ha, the pest or weed control at 70 g/ha [2, 8] was 90% and the pest or weed control at 140 g/ha [2, 8] was 90%. For the same compound, the pest or weed control at 280 g/ha [2, 8] was 90%, the “GR80 Value CHEAL” value [2] was <17.5 g ai/ha and the pest or weed control at 70 g/ha [3, 9] was 0%. The pest or weed control at 140 g/ha [3, 9] was 10%, the pest or weed control at 280 g/ha [3, 9] was 60% and the “GR80 Value ECHCG” value [3] was 432 g ai/ha. The pest or weed control at 70 g/ha [4, 10] was 100%, the pest or weed control at 140 g/ha [4, 10] was 100% and the pest or weed control at 280 g/ha [4, 10] was 100%. For the same compound, the “GR80 Value EPHHL” value [4] was 53.9 g ai/ha, the pest or weed control at 70 g/ha [5, 11] was 80% and the pest or weed control at 140 g/ha [5, 11] was 90%. For the same compound, the pest or weed control at 280 g/ha [5, 11] was 90%, the “GR80 Value HELAN” value [5] was 60 g ai/ha and the pest or weed control at 70 g/ha [6, 12] was 10%. For the same compound, the pest or weed control at 140 g/ha [6, 12] was 70%, the pest or weed control at 280 g/ha [6, 12] was 90% and the “GR80 Value VIOTR” value [6] was 203 g ai/ha. The plant injury at 70 g/ha (Oryza sativa L. (rice)) was 0%, the plant injury at 140 g/ha (Oryza sativa L. (rice)) was 0% and the plant injury at 280 g/ha (Oryza sativa L. (rice)) was 0%. It also gave a plant injury at 70 g/ha (Zea mays L. (corn)) of 0%, a plant injury at 140 g/ha (Zea mays L. (corn)) of 0% and a plant injury at 280 g/ha (Zea mays L. (corn)) of 0%.
